Some test systems named below: NCI-H23 lung; M14 melanoma; HT29 colon; SR leukemia; SF-268 CNS; MDA-MB-435; SK-OV-3 ovarian; BT-549 breast; SK-MEL-28 melanoma; SW-620 colon.
Holding throughout (experiment): growth of human tumour cells (NCI), 48 h

From PubChem BioAssay (NCI) come the findings set out here.

SMILES strings stand for the structures.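 Method: 48-hour compound exposure of cells in 96-well plates, five concentrations, linear interpolation of endpoints. TGI denotes the concentration required for complete inhibition of growth.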

As for `Cn1c2c(c3c(=O)[nH]ncc31)Cc1ccccc1-2`, the TGI in the assay with NCI-H23 lung was > 100 µM; in the assay on M14 melanoma, 38.9 µM; in the assay on HT29 colon it was > 100 µM; in the assay with SR leukemia, 28.4 µM; in the assay with SF-268 CNS, 94.2 µM; in the assay on MDA-MB-435, 35.1 µM. For the same compound, the TGI with SK-OV-3 ovarian was > 100 µM; in the assay on BT-549 breast, 60.5 µM; in the assay with SK-MEL-28 melanoma it was 60.1 µM; with SW-620 colon, 91.2 µM.
For `COC1=C(OC)C(=O)C(Cc2c(Cl)nc3sccn23)=C(C)C1=O`, the TGI in the assay with NCI-H23 lung is 29.2 µM; with M14 melanoma, 24.3 µM; in the assay with HT29 colon it was 27.7 µM; with SR leukemia, 18.5 µM; in the assay with SF-268 CNS, 30.4 µM; in the assay with MDA-MB-435 it was 21.8 µM. For the same compound, the TGI with SK-OV-3 ovarian is 21.7 µM; in the assay on BT-549 breast, 27.5 µM; in the assay with SK-MEL-28 melanoma, 24.4 µM; in the assay on SW-620 colon, 30.4 µM.
Regarding `CC(=O)Oc1cc2c(cc1OCC(F)(F)F)[C@H]1CC[C@]3(C)[C@@H](OC(C)=O)CC[C@H]3[C@@H]1CC2=O`, the TGI in the assay with NCI-H23 lung was > 68.8 µM; in the assay on M14 melanoma, > 78.6 µM; in the assay on HT29 colon it was > 63.8 µM; in the assay with SR leukemia, > 77.9 µM; in the assay with SF-268 CNS it was > 77.4 µM; with MDA-MB-435, > 72.1 µM. For the same compound, the TGI was 59.7 µM in the assay with SK-OV-3 ovarian, > 77.7 µM with BT-549 breast, > 67.6 µM in the assay on SK-MEL-28 melanoma and > 92.4 µM in the assay on SW-620 colon.
In the case of `COc1cccc2c(=O)oc(-c3ccccc3C)nc12`, the TGI in the assay with NCI-H23 lung, in the assay with HT29 colon, with SR leukemia, with SF-268 CNS, in the assay on MDA-MB-435 and in the assay on SK-OV-3 ovarian was > 100 µM in each case. Also, the TGI with BT-549 breast was 48.2 µM; in the assay on SK-MEL-28 melanoma, > 100 µM; with SW-620 colon it was > 100 µM.
In the case of `COc1cc2c(cc1O)C(Cc1ccc(OCc3ccccc3)c(OCc3ccccc3)c1)N(C(=O)NCCc1ccccc1)CC2` (stereo not drawn), the TGI in the assay on NCI-H23 lung, in the assay on M14 melanoma, with HT29 colon, in the assay with SR leukemia, with SF-268 CNS and in the assay on MDA-MB-435 was > 100 µM in each case. The TGI in the assay on SK-OV-3 ovarian, with BT-549 breast and with SW-620 colon was > 100 µM throughout.
Turning to `BrC1(c2ccccc2)C[n+]2c(-c3ccccc3)cc(-c3ccccc3)cc2-c2ccccc21` (stereo not drawn), the TGI with NCI-H23 lung was 34.5 µM; in the assay on M14 melanoma it was 15.5 µM; with HT29 colon, 3.46 µM; with SR leukemia, > 42.5 µM; in the assay with SF-268 CNS, 2.96 µM; in the assay with MDA-MB-435, 0.538 µM. Moreover, the results for the TGI in the assay with BT-549 breast, in the assay on SK-MEL-28 melanoma and with SW-620 colon were 1.85 µM, 21.2 µM and 11.4 µM, respectively.
Consider `CCOC(=O)N1CCNCCN(C(=O)OCC)CCNCC1`, for which the TGI in the assay with NCI-H23 lung, in the assay on M14 melanoma, in the assay on HT29 colon, in the assay with SR leukemia, in the assay with SF-268 CNS and with MDA-MB-435 was > 100 µM in each case. Moreover, the TGI in the assay with BT-549 breast, with SK-MEL-28 melanoma and with SW-620 colon was > 100 µM each time.
On to `Cc1cc2nc(N3C(=O)/C(=C/Cc4ccco4)N=C3c3ccccc3)sc2cc1C`, for which the TGI in the assay with M14 melanoma was > 100 µM; in the assay on HT29 colon, 76.5 µM; in the assay with SR leukemia it was > 100 µM; in the assay with SF-268 CNS it was > 100 µM; in the assay with MDA-MB-435 it was 50.5 µM; with SK-OV-3 ovarian, > 100 µM. In addition, the TGI in the assay on BT-549 breast, in the assay on SK-MEL-28 melanoma and in the assay with SW-620 colon was > 100 µM throughout.
Take `O=C(/C=C/c1ccccc1)c1cc(CN2CCOCC2)c(O)c(CN2CCOCC2)c1`: the TGI in the assay on NCI-H23 lung is 60 µM; in the assay with M14 melanoma, 43.2 µM; with HT29 colon it was > 100 µM; in the assay with SR leukemia, 24.2 µM; with SF-268 CNS, 46.6 µM; in the assay on MDA-MB-435, 32.3 µM. Besides, the results for the TGI in the assay with BT-549 breast, in the assay with SK-MEL-28 melanoma and in the assay with SW-620 colon were 85.3 µM, 29.4 µM and 28.9 µM, respectively.
As to `COC(=O)Nc1cc(OCCCOC(C)=O)c2[nH]c(C(=O)OC)cc2c1C[C@H](O)CO`, the TGI in the assay with NCI-H23 lung, in the assay with M14 melanoma, with HT29 colon, in the assay with SR leukemia, in the assay with MDA-MB-435 and in the assay with SK-OV-3 ovarian was > 100 µM in each case. Besides, the TGI in the assay with BT-549 breast, with SK-MEL-28 melanoma and in the assay on SW-620 colon was > 100 µM in each case.
Regarding `CC1(C)C(=O)/C(=C/c2ccccc2)C(C)(C)C1(C)C`, the TGI is > 100 µM in the assay on NCI-H23 lung; > 100 µM with M14 melanoma; > 100 µM in the assay with HT29 colon; > 74.2 µM in the assay with SR leukemia; > 86.6 µM in the assay on MDA-MB-435; > 100 µM in the assay with SK-OV-3 ovarian. Moreover, the TGI in the assay on BT-549 breast, in the assay with SK-MEL-28 melanoma and with SW-620 colon was > 100 µM throughout.
For the compound `O=C(/C=C\c1ccccc1)Oc1ccc(/C=C2\CCC/C(=C\c3ccc(OC(=O)/C=C\c4ccccc4)cc3)C2=O)cc1`, the TGI with NCI-H23 lung, in the assay with M14 melanoma, with HT29 colon, in the assay with SR leukemia, with SF-268 CNS and in the assay with MDA-MB-435 was > 100 µM in each case. Further, the TGI with BT-549 breast, with SK-MEL-28 melanoma and with SW-620 colon was > 100 µM throughout.
As to `O=S(Nc1ccccc1)c1ccc(Cl)cc1` (stereo not drawn), the TGI in the assay with NCI-H23 lung is > 100 µM; in the assay with M14 melanoma, > 100 µM; in the assay on HT29 colon, > 100 µM; in the assay with SR leukemia it was > 100 µM; with SF-268 CNS it was 82.9 µM; with MDA-MB-435, > 100 µM. Further, the TGI in the assay with BT-549 breast, in the assay on SK-MEL-28 melanoma and in the assay with SW-620 colon was > 100 µM throughout.
Turning to `COC(=O)CCC(C)[C@H]1CCC2C3CC[C@@H]4CC5(CC[C@]4(C)C3C[C@H](OC(C)=O)[C@@]21C)OOC1(CCCCC1)OO5` (stereo partly drawn), the TGI in the assay with NCI-H23 lung was > 100 µM; in the assay on M14 melanoma, > 100 µM; in the assay with HT29 colon, > 100 µM; in the assay with SR leukemia, > 100 µM; in the assay with SF-268 CNS, > 100 µM; in the assay on MDA-MB-435 it was 37 µM. In addition, the TGI in the assay on SK-OV-3 ovarian, in the assay with BT-549 breast and in the assay on SK-MEL-28 melanoma was > 100 µM each time.
With `C[n+]1c2ccccc2n2c3ccccc3c(NCCCn3ccnc3)c(C#N)c21`, the TGI in the assay on NCI-H23 lung is 9.13 µM; with M14 melanoma, 5.23 µM; in the assay on HT29 colon, 37.9 µM; in the assay on SR leukemia it was > 100 µM; with SF-268 CNS, 6.98 µM; with MDA-MB-435, 9.4 µM. For the same compound, the TGI was 38.8 µM in the assay with SK-OV-3 ovarian, > 100 µM in the assay on BT-549 breast and 13.3 µM in the assay on SK-MEL-28 melanoma.
